Measurements: patent US20240174611A1 (Rappta Therapeutics Oy, priority 2021, published 2024)

System: LNCaP cells
Assay: LNCaP cell viability assay (MTS)
Assay type: cell-based
Settings: Homo sapiens, LNCaP, 48 h, LNCaP cell line, 48 hours treatment
Method: LNCaP cell line was used for the cell viability assay. LNCaP cells were plated in 96-well plates at a density of 5000 cells per well. After 24 hours of plating, the cells were treated with increasing doses of compound 1-100 ranging from 1 μM to 80 μM. Relative cell numbers were analyzed after 48 hours using 3-(4,5-dimethylthiazol-2-yl)-5-(3-carboxymethoxyphenyl)-2-(4-sulfophenyl)-2H-tetrazolium (MTS) assay (Promega) according to the manufacturer's instructions.
(§1) The cell viability data was analyzed with GraphPad Prism software. The values were log transformed and analyzed with non-linear regression (curve-fit) using log(inhibitor) vs. response—variable slope (four parameters) and constraining the bottom to equal zero. Unless otherwise indicated, the GI50 values provided in Table 35 correspond to the LNCaP cell viability assays.

| GI50 | Compound |
| --- | --- |
| 48.9 µM | O=S(=O)(NC1(c2ccccc2)CCCNC1)c1ccc(OC(F)(F)F)cc1 (centres unmarked) [Compound 90, N-(3-phenylpiperidin-3-yl)-4-(trifluoromethoxy)benzenesulfonamide] |
| 9.6 µM | O=S(=O)(NC1(c2ccc(Cl)s2)CCNCC1)c1ccc(OC(F)(F)F)cc1 [Compound 91, N-(4-(5-chlorothiophen-2-yl)piperidin-4-yl)-4-(trifluoromethoxy)benzenesulfonamide] |
| 65.5 µM | Cc1cc(C2(NS(=O)(=O)c3ccc(OC(F)(F)F)c(N)c3)CCNC2)ccc1F (centres unmarked) [Compound 93, 3-amino-N-(3-(4-fluoro-3-methylphenyl)pyrrolidin-3-yl)-4-(trifluoromethoxy)benzenesulfonamide] |
| 15.8 µM | O=S(=O)(NC1(c2ccc(Cl)cc2F)CCNCC1)c1ccc(OC(F)(F)F)cc1 [Compound 94, N-(4-(4-chloro-2-fluorophenyl)piperidin-4-yl)-4-(trifluoromethoxy)benzenesulfonamide] |
| 45.8 µM | O=S(=O)(NC1(c2ncc(Cl)cc2F)CCNCC1)c1ccc(OC(F)(F)F)cc1 [Compound 95, N-(4-(5-chloro-3-fluoropyridin-2-yl)piperidin-4-yl)-4-(trifluoromethoxy)benzenesulfonamide] |
| 13.7 µM | NS(=O)(=NC1(c2ccc(Cl)cc2)CCNCC1)c1ccc(OC(F)(F)F)cc1 (centres unmarked) [Compound 96, N′-(4-(4-chlorophenyl)piperidin-4-yl)-4-(trifluoromethoxy)benzenesulfonimidamide] |
| 11.6 µM | O=S(=O)(NC1(c2ccc(Cl)cc2)CCNCC1)c1ccc(C(F)(F)F)cc1 [Compound 97, N-(4-(4-chlorophenyl)piperidin-4-yl)-4-(trifluoromethyl)benzenesulfonamide] |
| 46.6 µM | O=S(=O)(NC1(c2ccc(Cl)cc2)CCNCC1)C12CC(C(F)(F)F)(C1)C2 [Compound 98, N-(4-(4-chlorophenyl)piperidin-4-yl)-3-(trifluoromethyl)bicyclo[1.1.1]pentane-1-sulfonamide] |
| 46.1 µM | Nc1cc(S(=O)(=O)NC2(c3ccc(Cl)cc3)CCNCC2)ccc1OC(F)(F)F [Compound 99, 3-amino-N-(4-(4-chlorophenyl)piperidin-4-yl)-4-(trifluoromethoxy)benzenesulfonamide] |
| 22.3 µM | O=S(=O)(NC1(c2ccc(C(F)F)cc2)CCNCC1)c1ccc(OC(F)(F)F)cc1 [Compound 100, N-(4-(4-(difluoromethyl)phenyl)piperidin-4-yl)-4-(trifluoromethoxy)benzenesulfonamide] |

System: HCC1937 cells
Assay: HCC1937 cell viability assay (MTS)
Assay type: cell-based
Settings: Homo sapiens, HCC1937 cell line (footnote a), 48 hours treatment
Method: HCC1937 cell line HCC1937 cells are plated in a 96 well plate format at a density of 10,000 cells per well. After incubation overnight, cells are treated with compounds 1-100 at following concentrations: 80, 40, 20, 10, 5, 2.5, 1.25 μM. Compound concentrations are prepared in RPMI via serial dilutions from a starting stock of 80 mM. 48 hours after compound treatment, cell viability is assessed using the Promega CellTiter 96 aqueous one proliferation assay (Promega G3582, MTS assay) according to manufacturer's protocol.
as §1

| GI50 | Compound |
| --- | --- |
| 75.1 µM | O=S(=O)(NC1(c2ccc(F)cn2)CCNCC1)c1ccc(OC(F)(F)F)cc1 [Compound 65, N-(4-(5-fluoropyridin-2-yl)piperidin-4-yl)-4-(trifluoromethoxy)benzenesulfonamide] |
| 19.9 µM | CC(C)CCN1CCC(NS(=O)(=O)c2ccc(OC(F)(F)F)cc2)(c2ccc(Cl)cc2)C1 (centres unmarked) [Compound 76, N-(3-(4-chlorophenyl)-1-isopentylpyrrolidin-3-yl)-4-(trifluoromethoxy)benzenesulfonamide] |
| 75.1 µM | N=S(=O)(NC1(c2ccc(F)cc2)CCNC1)c1ccc(OC(F)(F)F)cc1 (centres unmarked) [Compound 84, N-(3-(4-fluorophenyl)pyrrolidin-3-yl)-4-(trifluoromethoxy)benzenesulfonimidamide] |
| 50.3 µM | Nc1cc(S(=O)(=O)NC2(c3ccc(F)cc3)CCNC2)ccc1OC(F)(F)F (centres unmarked) [Compound 92, 3-amino-N-(3-(4-fluorophenyl)pyrrolidin-3-yl)-4-(trifluoromethoxy)benzenesulfonamide] |
